Patent US8575116B1, “Polyacetylenic compounds for protecting against pancreatic islet atrophy” (Academia Sinica, priority 2010, dated 2013)

Legend:
[1] = system: human insulin promoter in HIT-T15 β-cells; test: Insulin promoter (phINS-Luc) dual luciferase assay in HIT-T15 β-cells; assay type: cell-based, rat
Description: FIGS. 4A-C show an increase in insulin mRNA and protein content by cytopiloyne in pancreatic islet cells. (A) HIT-T15 β-cells transfected with phINS-Luc and pRL-TK plasmids were incubated with vehicle (NS), glimepiride (GLM, 10 μM), high glucose (HG, 16.7 mM) or cytopiloyne at 7, 14 or 28 μM. Ten μg of cell lysates from these cells underwent to dual luciferase assays. […] (C) Rat pancreatic islet cells were treated with vehicle, glucose (3.3 mM (LG) or 16.7 mM (HG)) or cytopiloyne (CP, 7, 14 and 28 μM) in the presence of brefeldin A for 24 h. After anti-insulin antibody staining, these cells underwent FACS analysis. The percentage of insulin-positive β-cells is shown. All the results from 3 independent experiments are expressed as mean±SEM, and P<0.05 was considered to be statistically significant (*).
(A) RIN-M5F cells were grown in medium with 16.7 mM (HG) or 3.3 mM glucose (LG) in the presence of PMA. GF and cytopiloyne. The insulin level of the supernatants was determined using an ELISA kit. (B) RIN-M5F cells were transfected with 5 μg of dominant-negative PKCα or control plasmid grown in medium with 16.7 mM (HG) or 3.3 mM glucose (LG) in the presence of PMA (1 μM), GF109203X (3 μM) or cytopiloyne. The insulin level of the supernatants was determined using an ELISA kit. (C) HIT-T15 cells were transfected with phINS-Luc and pRL-TK plasmids. The cells were grown in medium with 16.7 mM (HG) or 3.3 mM glucose (LG) in the absence or presence of PMA, GF109203X and cytopiloyne. The cell lysates were subjected to dual luciferase assays. (D) HIT-T15 cells were transfected with vehicle or dominant-negative PKCα plasmid together with phINS-Luc and pRL-TK plasmids. The cells were grown in medium with 16.7 mM (HG) or 3.3 mM glucose (LG) in the absence or presence of PMA and cytopiloyne. The cell lysates were subjected to dual luciferase assays.
Plasmids phINS-Luc and pRL-TK contain a human insulin promoter (2347 bp) from phINS-DCR3 vector linked to a firefly luciferase gene and the thymidine kinase promoter linked to Renilla luciferase reporter gene, respectively. Dominant-negative PKCα, phINS-Luc and/or pRL-TK were transfected into HIT-T15 cells with lipofectamine or electroporation.

db/db mice = test: Glycosylated HbA1c in db/db mice after long-term treatment; assay type: in vivo, mouse
Description: (§1) FIGS. 1A-F show the anti-diabetic effects of cytopiloyne in db/db mice during long-term treatment. (A) Chemical structure of cytopiloyne (2-β-D-glucopyranosyloxy-1-hydroxytrideca-5,7,9,11-tetrayne). (B) Four groups of 6-to-8-week-old diabetic db/db mice were tube-fed with vehicle, cytopiloyne (CP, 0.5 and 2.5 mgkg^−1 day^−1) or glimepiride (GLM, 2.5 mgkg^−1 day^−1) from 0 to 42 days post-treatment. Blood glucose (BG) levels in these mice were measured. (C) Blood insulin levels from the mice of FIG. 1B. (D) IPGTT was performed in the db/db mice of FIG. 1B on day 0, 28 and 42, and blood glucose levels were monitored for 3.5 h. (E) The percentage of glycosylated HbAlc of whole blood from the mice of FIG. 1B on day 0 and 42. (F) Pancreata of 8- and 16-week-old db/db males, which had received the same treatment as FIG. 1B for 2 (images a-h) and 10 (images i-p) weeks, were stained with hematoxylin and eosin (H&E, images a, c, e, g, i, k, m and o) or hematoxylin and anti-insulin (H&I, images b, d, f, h, j, l, n and p). The arrowheads indicate pancreatic islets. Scale bars, 200 μm. Results from 3 independent experiments are expressed as mean±SEM, and P<0.05 was considered to be statistically significant (*). The number of mice (n) is indicated in parentheses.
After 0.5 h, the levels of postprandial blood sugar and insulin from the mice were monitored for additional 4 h. For continued administration, diabetic db/db males were grouped and tube-fed with vehicle, cytopiloyne (0.5 or 2.5 mgkg^−1 day^−1) or glimepiride (2.5 mg kg^−1 day^−1) for the indicated time, while levels of blood sugar, insulin, and glycosylated HbA1c, and glucose tolerance in these mice were determined. To evaluate the prophylaxis of diabetes, diabetes-free db/db mice at 4 weeks of age were tube-fed with vehicle or cytopiloyne (CP, 0.5 mgkg^−1), once a day, for 4 weeks. Unless indicated otherwise, the mice were fasted for 16 h, then Postprandial blood glucose and insulin in these mice were measured.
Glucose levels in mouse blood samples were measured using an Elite® glucometer (Bayer, Pittsburgh, Pa., USA). Insulin levels in blood samples or islet cell supernatants were determined by ELISA assays (Mercodia, Uppsala, Sweden). The levels of glycosylated HbA1c in mouse blood samples were measured using DCA 2000 analyzer (Bayer, Pittsburgh, Pa., USA).

[2] = system: pancreatic islets of db/db mice; test: Pancreatic islet histology/immunohistochemistry in db/db mice; assay type: in vivo, mouse; settings: for pancreatic islet structure after long-term treatment: db/db mice 12 to 14 weeks old, cytopiloyne 0.5 and 2.5, glimepiride 2.5 mgkg^−1 day^−1 (FIG. 1F)
Description: as §1
Pancreata from db/db males with continuous drug administration were snap frozen in OCT™ compound and stained with hematoxylin and eosin or anti-insulin antibody, followed by diaminobenzidine tetrahydrochloride development. Multiple parallel sections of each pancreas were analyzed by light microscopy.

[3] = Body weight of db/db mice during treatment; assay type: in vivo, mouse
Description: Tables 3 and 4 show the effects of cytopiloyne on body weight and food intake in db/db mice, respectively. Diabetic db/db mice at 6 to 8 weeks of age were allowed free access to food. These mice were treated with vehicle, glimepiride (GLM, 2.5 mg/kg/day), or cytopiloyne (CP, 0.5 and 2.5 mg/kg/day). Mean body weight and food intake of each group were measured from 0 to 6 weeks post-treatment. The number of mice (n) is indicated in parentheses.

adiponectin = test: Real-time RT-PCR of adiponectin mRNA relative to GAPDH in 3T3-L1 cells; assay type: cell-based, mouse
[4] = 2.5 mgkg^−1 day^−1, day 42, db/db mice 12 to 14 weeks of age (untreated 7.3%)
[5] = 2.5 mgkg^−1 day^−1, versus untreated db/db mice

SMILES | HbA1c glycosylated in the blood (db/db mice; [4]) | decrease of glycosylated HbA1c (db/db mice; [5]) | pancreatic islet structure after long-term treatment [2] | Mean body weight ([3]; 2.5 mg/kg/day, week 0) | Mean body weight ([3]; 2.5 mg/kg/day, week 1) | Mean body weight ([3]; 2.5 mg/kg/day, week 2) | Mean body weight ([3]; 2.5 mg/kg/day, week 4) | Mean body weight ([3]; 2.5 mg/kg/day, week 6) | further results
CCC1=C(C)CN(C(=O)NCCc2ccc(S(=O)(=O)NC(=O)N[C@H]3CC[C@H](C)CC3)cc2)C1=O [glimepiride, reference compound] | 6.3% | 1% | sporadic islets | 26.9 ± 1.2 g/mouse | 30.3 ± 2.7 g/mouse | 30.7 ± 3.0 g/mouse | 35.2 ± 1.8 g/mouse | 36.3 ± 2.1 g/mouse | insulin transcription (reporter) compared to the control ([1]; 10 μM, HIT-T15 β-cells, 24 h): no significant effect on insulin transcription; pancreatic islet structure after long-term treatment ([2]; listed as Glimepiride): failed to provide such a protection; adiponectin expression level, times control levels (adiponectin; mouse, 8 days, 10 μM): 9 times
CC#CC#CC#CC#CCCC(CO)O[C@@H]1O[C@H](CO)[C@@H](O)[C@H](O)[C@H]1O (stereo partly drawn) [cytopiloyne, 2-β-D-glucopyranosyloxy-1-hydroxytrideca-5,7,9,11-tetrayne] | 5.6% | 1.7% | much greater preservation of islet structure | 27.1 ± 2.4 g/mouse | 30.0 ± 2.5 g/mouse | 31.7 ± 1.5 g/mouse | 33.3 ± 4.1 g/mouse | 36.4 ± 3.7 g/mouse | insulin transcription (reporter), fold increase ([1]; 28 μM, HIT-T15 β-cells, 24 h): 5 times; insulin transcription in HIT-T15 cells ([1]; FIG. 6C, glucose 16.7 mM): stimulated insulin transcription; HbA1c glycosylated in the blood (db/db mice; 0.5 mgkg^−1 day^−1, day 42, db/db mice 12 to 14 weeks of age (untreated 7.3%)): 6%; decrease of glycosylated HbA1c (db/db mice; 0.5 mgkg^−1 day^−1, versus untreated db/db mice): 1.3%; protection against islet atrophy ([2]; low dose 0.5 mgkg^−1 day^−1, db/db mice (FIG. 1F)): protected against islet atrophy; Mean body weight ([3]; 0.5 mg/kg/day, week 0): 28.2 ± 3.0 g/mouse; Mean body weight ([3]; 0.5 mg/kg/day, week 1): 29.7 ± 3.1 g/mouse; Mean body weight ([3]; 0.5 mg/kg/day, week 2): 32.3 ± 3.3 g/mouse; Mean body weight ([3]; 0.5 mg/kg/day, week 4): 34.1 ± 2.9 g/mouse; Mean body weight ([3]; 0.5 mg/kg/day, week 6): 34.8 ± 2.8 g/mouse; body weight compared to control mice, in words ([3]; 6-week-treatment): did not significantly increase body weight; adiponectin expression (adiponectin; 5, 25 and 50 μM, 3T3-L1 cells): slight reduction in adiponectin expression
